Measured values taken from patent US20170368082A1, “FORMULATIONS OF BRINCIDOFOVIR” (priority 2016, published 2017).
Read-outs that look alike come from different tables or passages of the source.

Assay: Phase 2 toxicokinetics of brincidofovir and cidofovir in plasma
Format: in vivo, Sprague-Dawley CD rats
Settings: for Tmax: Sprague-Dawley CD, rat, plasma, iv, read-out: Median Tmax; for AUClast/Dose / Cmax/Dose / Tlast: brincidofovir in plasma, 1 mg/kg 2-hour IV infusion, Female rats
Experimental: Plasma samples (108) were collected 2 hours following the initiation of dosing on Day 1 and Day 7 (Group 1), or at 1, 2, 8, and 24 hours following the initiation of dosing on Day 1, and prior to administration and at 2, 8, and 24 hours following the initiation of dosing on Day 7 (Groups 2 and 3), and analyzed to determine the concentrations of brincidofovir and the metabolite, cidofovir), by LC/MS/MS.
Approximately 0.4 mL of whole blood was obtained via the tail vein from each animal at each time point. Animals were not fasted prior to blood collection. Blood was collected into tubes containing K2EDTA anticoagulant and placed on wet ice in an upright position, per facility SOP prior to processing. Plasma was separated by centrifugation (10 minutes at approximately 2000 g, at approximately 2-8° C.). Approximately 0.10 mL of plasma was transferred into a single cryotube appropriately labeled with study number, animal number, time point, date of sampling and sample type. Remaining plasma was transferred into a second cryotube and retained as a backup sample. Plasma frozen at approximately −80±10° C. within approximately 2 hours after collection of each blood sample until analysis. Animals were euthanized (CO2 inhalation) after the final blood collection.
In general, TK parameters were estimated using mean plasma concentrations of brincidofovir and cidofovir derived from the composite blood sampling design using Phoenix WinNonLin (V 6.3).
A composite blood sampling design was used such that each rat was sampled twice per sampling day. Blood was collected via tail vein from unanesthetized animals into tubes containing anticoagulant and placed on wet ice in an upright position. Animals were not fasted prior to blood collection. Plasma was separated by centrifugation (for 10 minutes at approximately 2000 g, at approximately 2-8° C.), and transferred into individually labeled cryotubes. All cryotubes containing the collected plasma samples were appropriately labeled as to study number, animal number, time point, date of sampling and sample type. All plasma samples were obtained and frozen at approximately −80° C. (±10° C.) within approximately 2 hours after collection of each blood sample until analysis.
Rat plasma bioanalysis was conducted by Pyxant Laboratories. Plasma samples were analyzed for concentrations of brincidofovir and cidofovir using a method based upon protein precipitation extraction followed by LC-MS/MS analysis; calibration ranges for brincidofovir and cidofovir were 1.00-1500 ng/mL and 5.00-750 ng/mL, respectively, (Pyxant study number 3025) for a 50 μL aliquot of rat plasma. Sample analysis for ISR was not performed as part of this non-GLP study.
For the generation of Mean Profiles, all sample concentrations that were below the limit of quantitation (BLQ) were set to 0.
All pharmacokinetic parameter estimates were completed using a Non-Compartmental Model (Model 200-202 for IV infusion administration). The AUClast and AUCinf were calculated using the linear up log down trapezoidal rule.

[1] = brincidofovir 1 mg/kg, Male, Day 1, 1 h
[2] = brincidofovir 1 mg/kg, Male, Day 1, 2 h
[3] = brincidofovir 1 mg/kg, Male, Day 7, 0 h
[4] = brincidofovir 1 mg/kg, Male, Day 7, 2 h
[5] = brincidofovir 15 mg/kg, Female, Day 1, 1 h
[6] = brincidofovir 15 mg/kg, Female, Day 1, 2 h
[7] = brincidofovir 15 mg/kg, Female, Day 1, 8 h
[8] = brincidofovir 15 mg/kg, Female, Day 1, 24 h
[9] = brincidofovir 15 mg/kg, Female, Day 7, 0 h
[10] = brincidofovir 15 mg/kg, Female, Day 7, 2 h
[11] = brincidofovir 15 mg/kg, Female, Day 7, 8 h
[12] = brincidofovir 15 mg/kg, Female, Day 7, 24 h
[13] = brincidofovir 15 mg/kg, Male, Day 1, 1 h
[14] = brincidofovir 15 mg/kg, Male, Day 1, 2 h
[15] = brincidofovir 15 mg/kg, Male, Day 1, 8 h
[16] = brincidofovir 15 mg/kg, Male, Day 7, 0 h
[17] = brincidofovir 15 mg/kg, Male, Day 7, 2 h

## CCCCCCCCCCCCCCCCOCCCOP(=O)(O)CO[C@H](CO)Cn1ccc(N)nc1=O [Brincidofovir]
1 or 15 mg/kg, Days 1 and 7
  Difference in Cmax between female and male: ≤ 54%
1 mg/kg, single and twice weekly 1 mg/kg
  Tmax: 2 h
15 mg/kg, single 15 mg/kg
  Tmax: 1 h
15 mg/kg, twice weekly 15 mg/kg
  Tmax: 2 h
Brincidofovir 1 mg/kg, Female, Day 7, 24 h
  brincidofovir Mean Concentration (MC): 0.00 ng/mL
[1]
  brincidofovir Imputed Mean Concentration (IMC): 227 ng/mL
  brincidofovir Mean Concentration (MC): 227 ng/mL
[2]
  brincidofovir Imputed Mean Concentration (IMC): 235 ng/mL
  brincidofovir Mean Concentration (MC): 235 ng/mL
Brincidofovir 1 mg/kg, Male, Day 1, 8 h
  brincidofovir Mean Concentration (MC): 0.00 ng/mL
Brincidofovir 1 mg/kg, Male, Day 1, 24 h
  brincidofovir Mean Concentration (MC): 0.00 ng/mL
[3]
  brincidofovir Imputed Mean Concentration (IMC): 0.00 ng/mL
  brincidofovir Mean Concentration (MC): 0.00 ng/mL
[4]
  brincidofovir Imputed Mean Concentration (IMC): 208 ng/mL
  brincidofovir Mean Concentration (MC): 208 ng/mL
Brincidofovir 1 mg/kg, Male, Day 7, 8 h
  brincidofovir Mean Concentration (MC): 0.00 ng/mL
Brincidofovir 1 mg/kg, Male, Day 7, 24 h
  brincidofovir Mean Concentration (MC): 0.00 ng/mL
[5]
  brincidofovir Imputed Mean Concentration (IMC): 3470 ng/mL
  brincidofovir Mean Concentration (MC): 3470 ng/mL
[6]
  brincidofovir Imputed Mean Concentration (IMC): 2570 ng/mL
  brincidofovir Mean Concentration (MC): 2570 ng/mL
[7]
  brincidofovir Imputed Mean Concentration (IMC): 6.53 ng/mL
  brincidofovir Mean Concentration (MC): 6.53 ng/mL
[8]
  brincidofovir Imputed Mean Concentration (IMC): 2.02 ng/mL
  brincidofovir Mean Concentration (MC): 2.02 ng/mL
[9]
  brincidofovir Imputed Mean Concentration (IMC): 0.00 ng/mL
  brincidofovir Mean Concentration (MC): 0.00 ng/mL
[10]
  brincidofovir Imputed Mean Concentration (IMC): 1660 ng/mL
  brincidofovir Mean Concentration (MC): 1660 ng/mL
[11]
  brincidofovir Imputed Mean Concentration (IMC): 5.45 ng/mL
  brincidofovir Mean Concentration (MC): 5.45 ng/mL
[12]
  brincidofovir Imputed Mean Concentration (IMC): 0.790 ng/mL
  brincidofovir Mean Concentration (MC): 0.790 ng/mL
[13]
  brincidofovir Imputed Mean Concentration (IMC): 4370 ng/mL
  brincidofovir Mean Concentration (MC): 4370 ng/mL
[14]
  brincidofovir Imputed Mean Concentration (IMC): 2840 ng/mL
  brincidofovir Mean Concentration (MC): 2840 ng/mL
[15]
  brincidofovir Imputed Mean Concentration (IMC): 9.59 ng/mL
  brincidofovir Mean Concentration (MC): 9.59 ng/mL
[16]
  brincidofovir Imputed Mean Concentration (IMC): 0.00 ng/mL
  brincidofovir Mean Concentration (MC): 0.00 ng/mL
[17]
  brincidofovir Imputed Mean Concentration (IMC): 1910 ng/mL
  brincidofovir Mean Concentration (MC): 1910 ng/mL
Brincidofovir 15 mg/kg, Male, Day 7, 8 h
  brincidofovir Mean Concentration (MC): 8.72 ng/mL
Day 1
  AUClast/Dose: 459 (h*ng/mL)/(mg/kg)
  Cmax/Dose: 191 (ng/mL)/(mg/kg)
  Tlast: 8 h
Day 7
  AUClast/Dose: 244 (h*ng/mL)/(mg/kg)
  Cmax/Dose: 95.4 (ng/mL)/(mg/kg)
  Tlast: 8 h
